Patent publication US20240148821A1, “PHARMACEUTICAL USE OF CYCLIC PEPTIDE COMPOUND” (CHUGAI SEIYAKU KABUSHIKI KAISHA, priority 2021, published 2024)
Numbered stars: 1 amine (or outer) side, 2 acyl side, 3 side chain; on linkers, the order of the positions; unused ones are H or OH. Bridge positions count the residues as written; N and C are the ends. Square brackets hold non-standard residues; d marks the D form. Peptide text beside a SMILES is read from it. * marks the point of attachment. hPhe(3,5-F2-4-CF3) = N[C@@H](CCc1cc(F)c(C(F)(F)F)c(F)c1)C(=O)O; hPhe(3-Cl-4-CF3) = N[C@@H](CCc1ccc(C(F)(F)F)c(Cl)c1)C(=O)O; hPhe(3-F,4-CF3) = N[C@@H](CCc1ccc(C(F)(F)F)c(F)c1)C(=O)O; X23 = N#Cc1cc(CC[C@H](N[*:1])C(=O)[*:2])ccc1C(F)(F)F; hPhe(4-CF3) = N[C@@H](CCc1ccc(C(F)(F)F)cc1)C(=O)O; NMePhe(4-Cl) = CN[C@@H](Cc1ccc(Cl)cc1)C(=O)O; NMePhe(4-Me) = CN[C@@H](Cc1ccc(C)cc1)C(=O)O; X61 = O=C(CN(CCCN1CCC(F)(F)CC1)[*:1])[*:2]; NMeGly(cPent) = CN[C@H](C(=O)O)C1CCCC1; NMeCha = CN[C@@H](CC1CCCCC1)C(=O)O; X4 = C#CC[C@H](CC(=O)[*:2])N[*:1]; NMeChg = CN[C@H](C(=O)O)C1CCCCC1; NMeI = CC[C@H](C)[C@H](NC)C(=O)O; d(β3hL) = CC(C)C[C@@H](N)CC(=O)O; NMeD = CN[C@@H](CC(=O)O)C(=O)O; NMeL = CN[C@@H](CC(C)C)C(=O)O; NMeNle = CCCC[C@H](NC)C(=O)O; NMeV = CN[C@H](C(=O)O)C(C)C; d(β3hA) = C[C@@H](N)CC(=O)O; NMeA = CN[C@@H](C)C(=O)O; Piperidide = C1CCN(*)CC1; Ac5c = NC1(C(=O)O)CCCC1; Aze = O=C(O)[C@@H]1CCN1; Aib = CC(C)(N)C(=O)O; Sar = CNCC(=O)O

biological target: protein-protein interaction between Kras and SOS1 (biotin-tagged human Kras loaded with GDP, His-tagged human SOS1) (Homo sapiens (Human), UniProt P01116, G12D); test: Protein-protein interaction inhibition between Kras and SOS1 (KrasG12D-SOS PPI) using AlphaScreen; assay type: biochemical; conditions: AlphaScreen; biotin-tagged human Kras loaded with GDP, His-tagged human SOS1; read-out: KRAS G12D-SOS PPI IC50;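 further: kras produced in E. coli, Ni-coupled donor beads and streptavidin acceptor beads, excitation 680 nm with emission detected at 520–620 nm via singlet oxygen transfer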

| Compound | IC50 [nM] |
| --- | --- |
| C#CC[C@@H]1CC(=O)N(C)[C@@H](C(C)C)C(=O)N[C@@H]([C@@H](C)CC)C(=O)N(C)CC(=O)N(C)CC(=O)N(C)[C@@H](Cc2ccc(Cl)cc2)C(=O)N(C)CC(=O)N[C@@H](CCc2ccc(C(F)(F)F)cc2)C(=O)N(C)[C@@H](CC(C)C)C(=O)NC2(CCCC2)C(=O)N(C)[C@@H](CC(C)C)C(=O)N1 [Compound 669] (cyclo([Ac5c][NMeL][X4][NMeV]I[Sar][Sar][NMePhe(4-Cl)][Sar][hPhe(4-CF3)][NMeL])) | 220 |
| CCCC[C@H]1C(=O)N2CC[C@H]2C(=O)N(C)[C@@H](CC2CCCCC2)C(=O)N(C)CC(=O)N[C@@H](CCc2ccc(C(F)(F)F)c(Cl)c2)C(=O)N2CCC[C@H]2C(=O)NC2(CCCC2)C(=O)N(C)[C@@H](C(C)C)C(=O)N(C)[C@H](C(=O)N2CCCCC2)CC(=O)N(C)[C@@H](CC(C)C)C(=O)N[C@@H]([C@@H](C)CC)C(=O)N1C [Compound 1596] ([NMeL]I[NMeNle][Aze][NMeCha][Sar][hPhe(3-Cl-4-CF3)]P[Ac5c][NMeV][NMeD]-Piperidide; lactam N-11) | 23 |
| CC[C@H](C)[C@@H]1NC(=O)[C@H](CC(C)C)N(C)C(=O)C[C@@H](C)NC(=O)[C@H](C(C)C)N(C)C(=O)C2(CCCC2)NC(=O)[C@@H]2CCCN2C(=O)[C@H](CCc2ccc(C(F)(F)F)c(F)c2)NC(=O)CN(C)C(=O)[C@H](CC2CCCCC2)N(C)C(=O)[C@@H]2CCN2C(=O)[C@H](C)N(C)C1=O [Compound 952] (cyclo([Ac5c][NMeV][d(β3hA)][NMeL]I[NMeA][Aze][NMeCha][Sar][hPhe(3-F,4-CF3)]P)) | 120 |
| CC[C@H](C)[C@@H]1NC(=O)[C@H](CC(C)C)N(C)C(=O)C[C@@H](C(=O)N2CCCCC2)N(C)C(=O)[C@H](C2CCCCC2)N(C)C(=O)C2(CCCC2)NC(=O)CN(CCCN2CCC(F)(F)CC2)C(=O)[C@H](CCc2ccc(C(F)(F)F)c(Cl)c2)NC(=O)CN(C)C(=O)[C@H](CC2CCCCC2)N(C)C(=O)CN(C)C(=O)CN(C)C1=O [Compound 2021] ([NMeL]I[Sar][Sar][NMeCha][Sar][hPhe(3-Cl-4-CF3)][X61][Ac5c][NMeChg][NMeD]-Piperidide; lactam N-11) | 2.8 |
| CC[C@H](C)[C@@H]1NC(=O)[C@H](CC(C)C)N(C)C(=O)C[C@@H](C(=O)N2CCCCC2)N(C)C(=O)[C@H](C2CCCC2)N(C)C(=O)C2(CCCC2)NC(=O)[C@@H]2CCCN2C(=O)[C@H](CCc2ccc(C(F)(F)F)c(C#N)c2)NC(=O)CN(C)C(=O)[C@H](CC2CCCCC2)N(C)C(=O)[C@@H]2CCN2C(=O)[C@H](C)N(C)C1=O [Compound 2072] ([NMeL]I[NMeA][Aze][NMeCha][Sar][X23]P[Ac5c][NMeGly(cPent)][NMeD]-Piperidide; lactam N-11 (inferred); C-terminus assumed) | 0.42 |
| CC[C@H](C)[C@@H]1NC(=O)[C@H](CC(C)C)N(C)C(=O)C[C@@H](CC(C)C)NC(=O)[C@H]([C@@H](C)CC)N(C)C(=O)C2(CCCC2)NC(=O)[C@@H]2CCCN2C(=O)[C@H](CCc2cc(F)c(C(F)(F)F)c(F)c2)NC(=O)CN(C)C(=O)[C@H](Cc2ccc(C)cc2)N(C)C(=O)[C@@H]2CCN2C(=O)[C@H](C)N(C)C1=O [Compound 1891] (cyclo([Ac5c][NMeI][d(β3hL)][NMeL]I[NMeA][Aze][NMePhe(4-Me)][Sar][hPhe(3,5-F2-4-CF3)]P)) | 230 |
| CC[C@H](C)[C@@H]1NC(=O)[C@H](C)N(C)C(=O)C[C@@H](C)NC(=O)[C@H](CC(C)C)N(C)C(=O)C(C)(C)NC(=O)[C@H](CC(C)C)N(C)C(=O)[C@H](CCc2ccc(C(F)(F)F)cc2)NC(=O)CN(C)C(=O)[C@H](CC2CCCCC2)N(C)C(=O)CN(C)C(=O)CN(C)C1=O [Compound 219] (cyclo([Aib][NMeL][d(β3hA)][NMeA]I[Sar][Sar][NMeCha][Sar][hPhe(4-CF3)][NMeL])) | 73 |
